How the values were obtained:
[1] = target: T1, enkephalinase (Rattus norvegicus, UniProt P07861); test: Inhibitory activity against enkephalinase (Test 1); assay type: biochemical; conditions: enkephalinase from corpus striatum of rat brain; substrate methionine-enkephaline; 37° C., 1 hour; pH 7.7
T1 construct: homogenizing corpus striatum of rat brain and by partial purification of the brain homogenate; from tissue; host or cells: rat brain corpus striatum, homogenate partially purified by the method of Gorenstein et al
T1 sequence (P07861 1-750): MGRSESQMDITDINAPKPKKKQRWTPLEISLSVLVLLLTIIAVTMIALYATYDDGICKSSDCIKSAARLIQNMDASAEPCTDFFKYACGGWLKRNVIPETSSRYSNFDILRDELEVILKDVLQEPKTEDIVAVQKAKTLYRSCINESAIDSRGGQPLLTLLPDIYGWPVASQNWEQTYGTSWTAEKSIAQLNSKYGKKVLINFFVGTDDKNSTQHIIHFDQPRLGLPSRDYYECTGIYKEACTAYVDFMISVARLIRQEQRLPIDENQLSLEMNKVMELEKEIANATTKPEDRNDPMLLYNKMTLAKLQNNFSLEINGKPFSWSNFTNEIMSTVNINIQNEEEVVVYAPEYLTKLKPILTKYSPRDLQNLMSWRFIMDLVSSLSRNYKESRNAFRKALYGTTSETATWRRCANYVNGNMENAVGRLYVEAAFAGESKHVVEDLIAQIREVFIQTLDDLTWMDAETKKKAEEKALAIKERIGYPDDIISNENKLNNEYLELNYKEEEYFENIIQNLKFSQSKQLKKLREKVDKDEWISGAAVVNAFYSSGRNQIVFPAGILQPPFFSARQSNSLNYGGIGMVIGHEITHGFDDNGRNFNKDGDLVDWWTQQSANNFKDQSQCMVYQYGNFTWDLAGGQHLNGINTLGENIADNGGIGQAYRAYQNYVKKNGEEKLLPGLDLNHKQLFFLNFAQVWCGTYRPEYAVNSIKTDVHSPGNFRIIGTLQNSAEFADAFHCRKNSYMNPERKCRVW
Description: Inhibitory activity against enkephalinase were tested.
A preparation of enkephalinase was made by homogenizing corpus striatum of rat brain and by partial purification of the brain homogenate according to the method of Gorenstein et al (see the "Life Science" Vol. 25, 2065~2070 (1979) Pergamon Press, U.S.A.).
A test compound was dissolved in a mixture of Trishydrochloride buffered solution (pH 7.7) and an aqueous 1% Triton X100 (an active surfectant) to such a concentration that the added quantity of the test compound amounted to one-tenth of the volume of said mixture. To the solution of the test compound so prepared was added the enkephalinase, followed by incubation for five minutes at ambient temperature and further by addition of methionine-enkephaline as the substrate. The admixture so obtained was incubated at 37° C. for 1 hour and then subjected to a high-performance liquid chromatography in such a manner that the Tyr-Gly-GLy (a fragment of the methionine-enkephaline) formed by the enzymatic degradation of methionine-enkephaline was isolated in some fractions of the eluate and the quantity of Tyr-Gly-GLy was determined by an electro-chemically analysing detector. In this way, IC50 value of the test compound, namely the dose of the test compound required for 50% inhibition of the enkephalinase was measured.

[2] = tested on: morphine analgesia-non-effective Wistar rats; test: Effect of enhancing morphine analgesia, tail-flick latency (Test 2); assay type: in vivo, rat
Description: Effect of enhancing morphine analgesia was tested.
To Wistar rats (10 week-age, male, body weight 250~300 g) was given intraperitoneally morphine at a dose of 0.5 mg/kg, and these rats receiving the morphine were classified into the group of morphine analgesia-effective rats and the group of morphine analgesia-non-effectiverats according to the classification method described in the "Showa Igakukai Zasshi" Vol. 39, No. 5, pages 537~542 (1979). […] The effect of analgesia was evaluated according to the method of tail-flick latency of rats described in the "Showa Igakukai Zasshi" Vol. 39, No. 5, pages 537~542 (1979). The evaluation of pain threshold of rats according to the tail-flick latency method was made as follows: Radiant heat stimulus was applied to the region of the rat tail which positioned 1 cm away from the tail tip and which had been colored black with a black-dye, and the time of latency involved in the tail flick, namely the period of time lapsing between the time of application of the heat stimulus and the time of the reflective flick response of the tail was measured. The quantity of the heat applied was so controlled that the average time of latency of the tail-flick response appearing in the control group of rats (receiving neither the test compound nor the morphine) was about 2.0 seconds. The tests were accomplished as long as the maximum value for the tail-flick latency was 7.0 seconds or less, as otherwise the skin of the rat tail could be damaged by the application of heat. In other words, if the time for the tail-flick latency was longer than 7.0 seconds, the tests were stopped to prevent the damage of the rat tail. The radiant heat stimulus was repeated 5 times for each test rat at an interval of 15 minutes and the times of latency in the flick response of the tail measured in each test were averaged. In each test, 5 rats were used.
The difference in the time of the tail-flick latency between the test rats (receiving 250 mg/kg of the test compound plus 0.5 mg/kg of morphine) and the control rats (receiving 0.5 mg/kg of morphine alone) was calculated, and the effect for enhancement of morphine analgesia was estimated in term of the value of percentages which were calculated by the following equation: [formula]

[3] = tested on: mice of ddy-strain; test: Analgesic activity by the acetic acid-writhing method (Test 3); assay type: in vivo, mouse; conditions: for Number of Writhings (Average value ± standard error): 30 minutes before 0.6% acetic acid i.p., counted during 15 minutes; for Suppression of writhing reactions: compared to the control group
Description: Analgesic activity of test compound was estimated according to the acetic acid-writhing method.
Mice groups each containing 10 mice of ddy-strain (male, 5 weeks-aged, average body weight about 20 grams) were employed as the test animal. A suspension of the test compound, D-Phe-AHPA suspended in an aqueous solution containing 0.5% of gum arabic and 7% of an active surfectant (consisting of the reaction products of hydrogenated castor oil with polyoxyethylene, commercially available under a registered tradename "Nikkol HCO-60", a product of Nihon Nyukazai Co., Ltd., Japan) was subcutaneously injected into each mouse at a dosage of 30, 150 or 250 mg/kg of the test compound. The above-mentioned suspension so subcutaneously injected was containing the test compound at such a concentration that 0.2 ml of said suspension as injected into each mouse provided the dosage of 30 mg/kg, 150 mg/kg or 250 mg/kg of the test compound. 30 Minutes later, […] of an aqueous solution of 0.6% of acetic acid was injected intraperitoneally into the mice. 5 Minutes after the injection of the aqueous acetic acid, estimation was commenced to count the number of the writhing reaction of the treated mice (the motions such as abdominal constrictions and extensions of the treated mice as induced by the injection of acetic acid) which took place during the subsequent 15 minutes (see the Japanese medical book "Iyaku Kaihatsu Koza" Vol. 5 pages 282~286, published from Chijin-Shokan in 1971 and an English medicinal journal "Brit. J. Pharmacol." 32, pages 295~310, 1968). For control, another mice groups received the subcutaneous administration of an aqueous solution containing no test compound but containing 0.5% of gum arabic and 7% of the active surfectant (Nikkol HCO-60). The rate (%) of suppressing the writhing reactions was evaluated as compared to the control group. "Students-t-test" was employed for the statistical analysis of the test results.

[4] = tested on: morphine analgesia-non-effective Wistar rats; test: Effect of enhancing morphine analgesia, tail-flick latency (Test 2); assay type: in vivo, rat; remark: listed apart in the source

SMILES	IC50 [1] [µM]	Morphine Analgesia enhancement ([2]; 250 mg/kg test compound i.p., 10 minutes later 0.5 mg/kg morphine i.p., versus 0.5 mg/kg morphine alone, tail-flick latency) [%]	Number of Writhings (Average value ± standard error) ([3]; 30 mg/kg s.c.)	Suppression of writhing reactions ([3]; 30 mg/kg s.c.) [%]	Number of Writhings (Average value ± standard error) ([3]; 150 mg/kg s.c.)	Suppression of writhing reactions ([3]; 150 mg/kg s.c.) [%]	Number of Writhings (Average value ± standard error) ([3]; 250 mg/kg s.c.)	Suppression of writhing reactions ([3]; 250 mg/kg s.c.) [%]	Dose dependence of suppression of acetic acid-writhing reaction ([3]; 30, 150 or 250 mg/kg s.c., compound alone)	Morphine Analgesia enhancement ([2]; morphine alone 0.5 mg/kg (comparative)) [%]	Morphine Analgesia enhancement ([4]; morphine alone 2 mg/kg (comparative)) [%]	Morphine Analgesia enhancement ([4]; morphine alone 3 mg/kg (comparative)) [%]
N[C@H](Cc1ccccc1)C(=O)N[C@H](Cc1ccccc1)[C@H](O)C(=O)O [Compound 10, (2S,3R)-3-N--(R)-phenylalanylamino-2-hydroxy-4-phenylbutanoic acid]	740	35.0	48.3 ± 3.7	37.4	43.9 ± 3.8	43.1	31.3 ± 8.0	59.4	suppressed the acetic acid-writhing reaction in the dosage-depending manner	–	–	–
CN1CC[C@]23c4c5ccc(O)c4O[C@H]2[C@@H](O)C=C[C@H]3[C@H]1C5 [Morphine, morphine]	–	–	–	–	–	–	–	–	–	0	28.4	35.1
